Publication PMC7423924, “A fluorogenic cyclic peptide for imaging and quantification of drug-induced apoptosis” (Nature Communications, 2020)
“And” between values parts separate entries of the source, which are not always exact repeats. Equal entries are not always repeated.

B1: Annexin-FITC: FITC-labeled annexin V (protein, UniProt P08758 2-320, looked up)
Annexin A5: AQVLRGTVTDFPGFDERADAETLRKAMKGLGTDEESILTLLTSRSNAQRQEISAAFKTLFGRDLLDDLKSELTGKFEKLIVALMKPSRLYDAYELKHALKGAGTNEKVLTEIIASRTPEELRAIKQVYEEEYGSSLEDDVVGDTSGYYQRMLVVLLQANRDPDAGIDEAQVEQDAQALFQAGELKWGTDEEKFITIFGTRSVSHLRKVFDKYMTISGFQIEETIDRETSGNLEQLLLAVVKSIRSIPAYLAETLYYAMKGAGTDDHTLIRVMVSRSEIDLFNIRKEFRKNFATSLYSMIKGDTSGDYKKALLLLCGEDD
modifications: FITC label
notes: FITC-labeled annexin V

Experiments:
[1] = design: method as in 2 sources, ref Table 1 ||| ref [8],[60],[19],[61],[63],[64],[66],[67] = [8]; PMID 19966809; doi:10.1038/nmeth.1405; 8. Kim YE Chen J Chan JR Langen R Engineering a polarity-sensitive biosensor for time-lapse imaging of apoptotic processes and degeneration Nat. Methods 2010 7 67 73 19966809 10.1038/nmeth.1405 PMC284 || [60]; PMID 20671723; doi:10.1038/nprot.2010.101; 60. Kim YE Chen J Langen R Chan JR Monitoring apoptosis and neuronal degeneration by real-time detection of phosphatidylserine externalization using a polarity-sensitive indicator of viability and apo || [19]; PMID 17051335; doi:10.1007/s10495-006-0282-7; 19. Aloya R Molecular imaging of cell death in vivo by a novel small molecule probe Apoptosis 2006 11 2089 2101 17051335 10.1007/s10495-006-0282-7 PMC2782107 || [61]; PMID 16317537; doi:10.1007/s00259-005-1905-x; 61. Damianovich M ApoSense: a novel technology for functional molecular imaging of cell death in models of acute renal tubular necrosis Eur. J. Nucl. Med. Mol. Imaging 2006 33 281 291 16317537 10.1007 || [63]; PMID 15113694; doi:10.1016/j.ab.2004.01.020; 63. Garcia Fernandez MI Ceccarelli D Muscatello U Use of the fluorescent dye 10-N-nonyl acridine orange in quantitative and location assays of cardiolipin: a study on different experimental models Ana; settings: cited from earlier work; for Brightness (φ × ε): Table 1, commercial probes, ref [8],[60],[19],[61],[63],[64],[66],[67]
[2] = system: human neutrophils; experiment: CDKi-induced, caspase-dependent neutrophil apoptosis detected with Apo-15; assay type: cell-based; settings: R-roscovitine 20 µM (CDKi), QVD 10 μM, single replicates Data 1-4
Experimental: First, we confirmed that Apo-15 could detect CDKi-induced apoptosis in vitro. […] Apo-15 staining of CDKi-induced apoptosis was also caspase-dependent as confirmed by a significant reduction in the fluorescent signal after treatment with the caspase inhibitor QVD[34] (Fig. 5a). Next, we induced ALI in vivo in mice by intratracheal administration of E. coli-derived LPS (1 μg per mouse), and the apoptotic load in the lungs relative to saline control was increased by intraperitoneal administration of CDKi AT7519[38] (Fig. 5b). In all mice, we administered Apo-15 in vivo and, 30 min later, we collected bronchoalveolar lavage fluid (BALF) together with lung tissues. BALF and lung slices from LPS-only and LPS + CDKi mice were analyzed by multiparameter flow cytometry to determine the proportion of apoptotic cells that had been stained by Apo-15 in vivo (gating strategy in Supplementary Fig. 15). […] Furthermore, we quantified the effects of CDKi-induced apoptosis in vivo by measuring the percentages of apoptotic neutrophils in total cell counts. […] We confirmed that CD45 + Ly6G+ cells labeled by Apo-15 in vivo were apoptotic by co-staining with AF647-Annexin V ex vivo (Fig. 5d). Next, we acquired fluorescence microscopy images of lung tissue sections from mice under different regimes (Fig. 5c, e). […]

[3] = system: apoptotic neutrophils; experiment: Signal-to-noise ratios in imaging of apoptotic neutrophils; assay type: cell-based, human; settings: apoptotic cells, excitation 488 nm, same settings; response to reviewers
Experimental: Signal-to-noise ratios for apoptotic neutrophils labeled with FITC-Annexin V or Apo-15 were determined after image acquisition under the same laser power and gain and analysis using ImageJ. Briefly, raw images were converted into 16-bit grayscale images and average fluorescence intensities in labeled cells and in the background were measured (≥150 points per condition). Experiments were performed in triplicate.
Supplementary Figure 14. Quantification of the fluorescence signal-to-noise (S/N) ratios in apoptotic neutrophils after staining with Apo -15 (100 nM) or FITC-Annexin V (25 nM) and image acquisition under the same experimental conditions
(excitation/emission filters: 488 nm /525 nm). Data presented as mean values±SEM (n=3-4 independent cells from 3 independent experiments). Source data are provided […]
FIT C, AlexaFluor647). […]
In imaging experiment in mice, the fluorescence signals were not found along membranes in the cells. […]
First, we have included flow cytometric data from BALs of LPS-treated mice that were not given Apo- 15, which conf irm ed the lack of green fluorescence in viable CD45+CD11c+ Annexin V− macrophages (new Supplementary Figure 15 and new Supplementary Figure 18 for the results). […]

Molecule	Brightness (φ × ε) [1]	Apo-15-positive cells (flow cytometry) [2]	other results
CC[N+](C)(CC)CCC[n+]1c(-c2ccccc2)c2cc(N)ccc2c2ccc(N)cc21.[I-].[I-] [PI, propidium iodide]	<100	–	–
CC[C@H](CO)Nc1nc(NCc2ccccc2)c2ncn(C(C)C)c2n1 [CDKi, R-roscovitine]	–	57.1 and 64.3 and 39.1 and 90.1	–
CN(C)c1cccc2c(S(=O)(=O)N[C@@H](CSSC[C@H](NS(=O)(=O)c3cccc4c(N(C)C)cccc34)C(=O)O)C(=O)O)cccc12 [N,N′-Didansyl-L-cystin]	3000	–	Brightness ([1]; other environmentally-sensitive probes, ref Table 1): 3000 M⁻¹ cm⁻¹
CCCCCCCCC[n+]1c2cc(N(C)C)ccc2cc2ccc(N(C)C)cc21.[Br-] [Nonyl acridine orange]	20,000	–	–
CC(C)[C@H](NC(=O)c1ccc2ccccc2n1)C(=O)N[C@@H](CC(=O)O)C(=O)COc1c(F)cccc1F [QVD]	–	3.0 and 7.0 and 2.9 and 4.0	–
B1	–	–	Signal-to-noise ratio [3]: ~100 fold
